Measurements: patent US8304391B2 (Affymax, Inc., priority 2003, dated 2012)
Bridges are numbered along the chain shown (N, C = ends). Roman numbers before positions name the chains, in order. Where no end group is shown, it is not given here. [ ]: non-standard residue; d: D form. The star is where a group is joined. ξ: configuration not given here. 1Nal = N[C@@H](Cc1cccc2ccccc12)C(=O)O; NH(CH2CH2O)2CH2CH2NH2 = NCCOCCOCCN*; hSer = N[C@@H](CCO)C(=O)O; ξK = NCCCCC(N)C(=O)O; Ahx = NCCCCCC(=O)O; Sar = CNCC(=O)O

Experiments:
[1] = target: chimeric receptor comprising the extra-cellular portion of the human EPO receptor to the intra-cellular portion of the human GCSF receptor; assay: Reporter assay (Baf3/EpoR/GCSFR fos/lux luciferase); type: cell-based; settings: peptide monomers; Baf3/EpoR/GCSFR fos/lux cells, 4 h
Protocol: One assay is based upon a murine pre-B-cell line expressing human EPO-R and further transfected with a fos promoter-driven luciferase reporter gene construct. Upon exposure to EPO or another EPO-R agonist, such cells respond by synthesizing luciferase. Luciferase causes the emission of light upon addition of its substrate luciferin. Thus, the level of EPO-R activation in such cells may be quantitated via measurement of luciferase activity. The activity of a test peptide is measured by adding serial dilutions of the test peptide to the cells, which are then incubated for 4 hours. After incubation, luciferin substrate is added to the cells, and light emission is measured. The concentration of test peptide that results in a half-maximal emission of light is recorded as the EC50.
This assay is based upon a on a murine pre-B-cell line derived reporter cell, Baf3/EpoR/GCSFR fos/lux. […] Thus, the level of EPO-R activation in such cells may be quantitated via measurement of luciferase activity.
The Baf3/EpoR/GCSFR fos/lux cells are cultured in DMEM/F12 medium (Gibco) supplemented with 10% fetal bovine serum (FBS; Hyclone), 10% WEHI-3 supernatant (the supernatant from a culture of WEHI-3 cells, ATCC # TIB-68), and penicillin/streptomycin. […] Following a 5-minute incubation, light emission is measured on a Packard Topcount Luminometer (Packard Instrument Co., Downers Grove, Ill.). […]

[2] = tested on: human, bone marrow derived CD34+ cells; type: cell-based
Source text: EPO-R signaling stimulates the differentiation of bone marrow stem cells into proliferating red blood cell precursors. This assay measures the ability of test peptides to stimulate the proliferation and differentiation of red blood cell precursors from primary human bone marrow pluripotent stem cells.
For this assay, serial dilutions of test peptide are made in IMDM medium (Gibco) supplemented with 10% FBS (Hyclone). […] The methylcellulose and peptide mixture is then vortexed thoroughly. Aliquots (100,000 cells/mL) of human, bone marrow derived CD34+ cells (Poietics/Cambrex) are thawed. The thawed cells are gently added to 0.1 mL of 1 mg/ml DNAse (Stem Cells) in a 50 mL tube. Next, 40-50 mL IMDM medium is added gently to cells: the medium is added drop by drop along the side of the 50 mL tube for the first 10 mL, and then the remaining volume of medium is slowly dispensed along the side of the tube. The cells are then spun at 900 rpm for 20 min, and the media removed carefully by gentle aspiration. The cells are resuspended in 1 ml of IMDM medium and the cell density per mL is counted on hemacytometer slide (10 μL aliquot of cell suspension on slide, and cell density is the average count×10,000 cells/mil). The cells are then diluted in IMDM medium to a cell density of 15,000 cells/mL. A 100 μL of diluted cells is then added to each 1.5 mL methyl cellulose plus peptide sample (final cell concentration in assay media is 1000 cells/mL), and the mixture is vortexed. Allow the bubbles in the mixture to disappear, and then aspirate 1 mL using blunt-end needle. Add 0.25 mL aspirated mixture from each sample into each of 4 wells of a 24-well plate (Falcon brand). Incubate the plated mixtures at 37° C. under 5% CO2 in a humid incubator for 14 days. Score for the presence of erythroid colonies using a phase microscope (5×-10× objective, final magnification of 100×).

[3] = target: T1, human EPO-R (Homo sapiens, UniProt P19235); assay: Proliferation assay (BaF3/Gal4/Elk/EPOR cells, MTT); type: cell-based; settings: 48 h
T1 construct: expressed in transfected cells; host or cells: murine pre-B-cell line Baf3 (BaF3/Gal4/Elk/EPOR)
T1 sequence (P19235 25-508): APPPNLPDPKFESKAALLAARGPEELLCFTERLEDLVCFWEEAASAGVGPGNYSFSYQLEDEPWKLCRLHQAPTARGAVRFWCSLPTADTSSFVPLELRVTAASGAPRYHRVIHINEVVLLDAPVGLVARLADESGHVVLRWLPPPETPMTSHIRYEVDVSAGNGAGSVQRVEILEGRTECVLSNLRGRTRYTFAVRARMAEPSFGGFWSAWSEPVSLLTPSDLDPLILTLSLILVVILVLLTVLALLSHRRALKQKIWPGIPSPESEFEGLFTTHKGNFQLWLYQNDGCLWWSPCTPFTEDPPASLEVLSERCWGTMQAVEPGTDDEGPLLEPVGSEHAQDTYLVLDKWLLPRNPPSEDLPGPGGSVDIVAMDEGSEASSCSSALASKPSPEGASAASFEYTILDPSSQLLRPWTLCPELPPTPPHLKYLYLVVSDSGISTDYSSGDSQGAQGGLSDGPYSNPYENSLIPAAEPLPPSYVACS
Protocol: This assay is based upon a murine pre-B-cell line, Baf3, transfected to express human EPO-R. Proliferation of the resulting cell line, BaF3/Gal4/Elk/EPOR, is dependent on EPO-R activation. The degree of cell proliferation is quantitated using MTT, where the signal in the MTT assay is proportional to the number of viable cells.
The BaF3/Ga14/Elk/EPOR cells are cultured in spinner flasks in DMEM/F12 medium (Gibco) supplemented with 10% FBS (Hyclone) and 2% WEHI-3 supernatant (ATCC # TIB-68). Cultured cells are starved overnight, in a spinner flask at a cell density of 1×10^6 cells/ml, in DMEM/F12 medium supplemented with 10% FBS and 0.1% WEHI-3 supernatant. The starved cells are then washed twice with Dulbecco's PBS (Gibco), and resuspended to a density of 1×10^6 cells/ml in DMEM/F12 supplemented with 10% FBS (no WEHI-3 supernatant). 50 μL , aliquots (˜50,000 cells) of the cell suspension are then plated, in triplicate, in 96 well assay plates. […] The plated cells are then incubated for 48 h at 37° C. Next, 10 μL of MTT (Roche Diagnostics) is added to each culture dish well, and then allowed to incubate for 4 h. The reaction is then stopped by adding 10% SDS+0.01N HCl. The plates are then incubated overnight at 37° C. Absorbance of each well at a wavelength of 595 nm is then measured by spectrophotometry. Plots of the absorbance readings versus test peptide concentration are constructed and the EC50 calculated using Graph Pad software. The concentration of test peptide that results in a half-maximal absorbance is recorded as the EC50 [See Table 3: Proliferation EC50].

[4] = target: T2, recombinant EPO-R (Homo sapiens, UniProt P19235); assay: Competitive binding assay (AQ, bead proximity, tracer AF33068); settings: tracer AF33068 30 nM, 18 hours
T2 construct: made in house; host or cells: Chinese Hamster Ovary cells
T2 sequence (P19235 25-250 limits assumed): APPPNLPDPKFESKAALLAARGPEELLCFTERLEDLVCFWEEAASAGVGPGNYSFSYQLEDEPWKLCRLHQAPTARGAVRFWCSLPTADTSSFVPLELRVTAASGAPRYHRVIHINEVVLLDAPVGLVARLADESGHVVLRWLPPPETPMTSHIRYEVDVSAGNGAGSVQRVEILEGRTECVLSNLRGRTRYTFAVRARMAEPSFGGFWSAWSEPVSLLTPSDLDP
Source text: Competitive binding calculations are made using an assay in which a light signal is generated as a function of the proximity of two beads: a streptavidin donor bead bearing a biotinylated EPO-R-binding peptide tracer and an acceptor bead to which is bound EPO-R. Light is generated by non-radiative energy transfer, during which a singlet oxygen is released from a first bead upon illumination, and contact with the released singlet oxygen causes the second bead to emit light. These bead sets are commercially available (Packard). Bead proximity is generated by the binding of the EPO-R-binding peptide tracer to the EPO-R. A test peptide that competes with the EPO-R-binding peptide tracer for binding to EPO-R will prevent this binding, causing a decrease in light emission.
In more detail the method is as follows: Add 4 μL of serial dilutions of the test EPO-R agonist peptide, or positive or negative controls, to wells of a 384 well plate. Thereafter, add 2 μL/well of receptor/bead cocktail. […]
Centrifuge 1 min to mix. […] After 18 hours read light emission using an AlphaQuest reader (Packard). […]

Substance | EC50 [1] [nM] | EC90 [2] [nM] | EC50 [3] [nM] | IC50 [4] [nM]
GGLYACHMGPMT(1-nal)VCQPLRG (GGLYACHMGPMT[1Nal]VCQPLRG; cysteine pairing not given here) [AF31748] | 40 | – | – | –
GGLYACHMGPMTVCQPLRG [AF31552] | 100 | – | – | –
I: Ac-GGLYACHMGPITWVCQPLRGK[Ahx][Ahx] / II: Ac-GGLYACHMGPITWVCQPLRG (disulfide I:6-I:15, II:6-II:15; amide I:21-II:C; N-terminus assumed) [AF34753] | – | 1.2 | – | –
I: Ac-GGLYACHMGPIT[1Nal]VCQPLR[Sar][ξK]-{NH(CH2CH2O)2CH2CH2NH2} / II: Ac-GGLYACHMGPIT[1Nal]VCQPLR[Sar] (disulfide I:6-I:15, II:6-II:15; amide I:21-II:C) [AF35525] | – | 3 | 0.057 | –
I: Ac-GGLYACH[hSer](Me)GPIT[1Nal]VCQPLRGK[Ahx][Ahx] / II: Ac-GGLYACH[hSer](Me)GPIT[1Nal]VCQPLRG (disulfide I:6-I:15, II:6-II:15; amide I:21-II:C; N-terminus assumed) [AF35179] | – | 3.7 | – | –
I: Ac-GGLYACH[hSer](Me)GPIT[1Nal]VCQPLR[Sar][ξK]-{NH(CH2CH2O)2CH2CH2NH2} / II: Ac-GGLYACH[hSer](Me)GPIT[1Nal]VCQPLR[Sar] (disulfide I:6-I:15, II:6-II:15; amide I:21-II:C) [AF35149] | – | 2 | 0.057 | –
I: GGLYACHMGPITWVCQPLRGK-NH2 / II: GGLYACHMGPITWVCQPLRG (disulfide I:6-I:15, II:6-II:15; amide I:21-II:C) [AF32579] | – | 3 | 0.142 | 1.7
I: GGLYACHMGPIT[1Nal]VCQPLR[Sar]K-NH2 / II: GGLYACHMGPIT[1Nal]VCQPLR[Sar] (disulfide I:6-I:15, II:6-II:15; amide I:21-II:C) [AF34994] | – | 3.7 | 0.17 | –
I: GGLYACH[hSer](Me)GPITWVCQPLR[Sar]K-NH2 / II: GGLYACH[hSer](Me)GPITWVCQPLR[Sar] (disulfide I:6-I:15, II:6-II:15; amide I:21-II:C) [AF35090] | – | 3.7 | 0.19 | –
I: GGLYACH[hSer](Me)GPIT[1Nal]VCQPLRGK-NH2 / II: GGLYACH[hSer](Me)GPIT[1Nal]VCQPLRG (disulfide I:6-I:15, II:6-II:15; amide I:21-II:C) [AF32881] | – | 11 | – | –
